# According to patent US20250367322A1, “NUCLEOBASE EDITING SYSTEM AND METHOD OF USING SAME FOR MODIFYING NUCLEIC ACID SEQUENCES” (ReNAgade Therapeutics Management, Inc., priority 2022, published 2025):
# B1: TnpB (SEQ ID NO: 1): "TnpB (SEQ ID NO: 1) endonuclease edits human EMX1 locus (hEMX1) in HEK293T cells" (protein)
# chain: MIRNKAFVVRLYPNAAQTELINRTLGSARFVYNHFLARRIAAYKESGKGLTYGQTSSELTLLKQAEETSWLSEVDKFALQNSLKNLETAYKNFFRTVKQSGKKVGFPRFRKKRTGESYRTQFTNNNIQIGEGRLKLPKLGWVKTKGQQDIQGKILNVTVRRIHEGHYEASVLCEVEIPYLPAAPKFAAGVDVGIKDFAIVTDGVRFKHEQNPKYYRSTLKRLRKAQQTLSRRKKGSARYGKAKTKLARIHKRIVNKRQDFLHKLTTSLVREYEIIGTEHLKPDNMRKNRRLALSISDAGWGEFIRQLEYKAAWYGRLVSKVSPYFPSSQLCHDCGFKNPEVKNLAVRTWTCPNCGETHDRDENAALNIRREALVAAGISDTLNAHGGYVRPASAGNGLRSENHATLVV
# modifications: Deinococcus radiodurans
# Legend:
# [1] = system: Mus musculus EMX1 locus (mEMX1); experiment: In vivo TnpB editing of mouse EMX1 locus in liver, delivered with an LNP (indels detected by NGS); details: TnpB delivered with an LNP (Table (III) Compound C59), FIG. 7
# [2] = system: human EMX1 locus (hEMX1); experiment: TnpB endonuclease editing of human EMX1 locus in HEK293T cells (indels detected by NGS); format: cell-based; details: FIG. 5
molecule,measurement,setting,value
CCCCCC(CCCCC)CCOC(=O)CCCCCCCC(CCCCCCCC(=O)OC1CC2CCCC1C2)OC(=O)CCCN(C)C (centres unmarked) [Compound C59],editing of Mus musculus EMX1 locus (mEMX1) in liver in vivo,[1],edits Mus musculus EMX1 locus (mEMX1) in liver in vivo
B1,editing of human EMX1 locus (hEMX1),[2],edits human EMX1 locus
